Assay results taken from PubChem BioAssay AID1919010 (Molecular Pharmacology Branch, DTP, NCI, 2023).
“And” between values parts separate entries of the source, which are not always exact repeats. Identical values can stand only once.

Test system: Hs578T complex spheroid growth, percent test/control
Assay: Anticancer human tumor Hs578T cell line growth inhibition [AhR];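 further: luminescent viability signal as a proxy for spheroid growth; spheroids exposed to agents for one week after three days of growth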
Conditions: for viability, T/C: stronger effect = lower value
Procedure, shortened: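 Spheroids combined tumor cells with HUVEC endothelial cells and human MSCs as stroma. AhR antagonists were paired with standard or investigational drugs, each dosed in half-log steps down from near clinical Cmax, or from 10 microM where Cmax was unknown.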

[1] = curve of first compound, second compound 0.1 µM
[2] = curve of first compound, second compound 0.316 µM
[3] = curve of first compound, second compound 1 µM
[4] = curve of first compound, second compound 3.16 µM
[5] = curve of first compound, second compound 10 µM
[6] = second compound 0.1 µM, first compound 0.000316 µM
[7] = second compound 0.1 µM, first compound 0.001 µM
[8] = second compound 0.1 µM, first compound 0.00316 µM
[9] = second compound 0.1 µM, first compound 0.01 µM
[10] = second compound 0.1 µM, first compound 0.0316 µM
[11] = second compound 0.1 µM, first compound 0.1 µM
[12] = second compound 0.316 µM, first compound 0.000316 µM
[13] = second compound 0.316 µM, first compound 0.001 µM
[14] = second compound 0.316 µM, first compound 0.00316 µM
[15] = second compound 0.316 µM, first compound 0.01 µM
[16] = second compound 0.316 µM, first compound 0.0316 µM
[17] = second compound 0.316 µM, first compound 0.1 µM
[18] = second compound 1 µM, first compound 0.000316 µM
[19] = second compound 1 µM, first compound 0.001 µM
[20] = second compound 1 µM, first compound 0.00316 µM
[21] = second compound 1 µM, first compound 0.01 µM
[22] = second compound 1 µM, first compound 0.0316 µM
[23] = second compound 1 µM, first compound 0.1 µM
[24] = second compound 3.16 µM, first compound 0.000316 µM
[25] = second compound 3.16 µM, first compound 0.001 µM
[26] = second compound 3.16 µM, first compound 0.00316 µM
[27] = second compound 3.16 µM, first compound 0.01 µM
[28] = second compound 3.16 µM, first compound 0.0316 µM
[29] = second compound 3.16 µM, first compound 0.1 µM
[30] = second compound 10 µM, first compound 0.000316 µM
[31] = second compound 10 µM, first compound 0.001 µM
[32] = second compound 10 µM, first compound 0.00316 µM
[33] = second compound 10 µM, first compound 0.01 µM
[34] = second compound 10 µM, first compound 0.0316 µM
[35] = second compound 10 µM, first compound 0.1 µM

Cn1ncnc1C1c2n[nH]c(=O)c3cc(F)cc(c23)NC1c1ccc(F)cc1 (centres undefined) + CC(CO)NC(=O)c1cc(-c2ccc(Cl)cc2)nn(-c2cnn(C)c2)c1=O
IC50 [1]: > 100 nM | IC50 [2]: > 100 nM | IC50 [3]: > 100 nM | IC50 [4]: > 100 nM | IC50 [5]: > 100 nM | viability, T/C [6]: 111% | viability, T/C [7]: 118% | viability, T/C [8]: 117% | viability, T/C [9]: 109% | viability, T/C [10]: 117% | viability, T/C [11]: 120% | viability, T/C [12]: 110% | viability, T/C [13]: 115% | viability, T/C [14]: 125% | viability, T/C [15]: 118% | viability, T/C [16]: 118% | viability, T/C [17]: 108% | viability, T/C [18]: 112% | viability, T/C [19]: 131% | viability, T/C [20]: 127% | viability, T/C [21]: 109% | viability, T/C [22]: 117% | viability, T/C [23]: 109% | viability, T/C [24]: 108% | viability, T/C [25]: 127% | viability, T/C [26]: 140% | viability, T/C [27]: 114% | viability, T/C [28]: 118% | viability, T/C [29]: 118% | viability, T/C [30]: 95.1% | viability, T/C [31]: 110% | viability, T/C [32]: 104% | viability, T/C [33]: 95.6% | viability, T/C [34]: 109% | viability, T/C [35]: 118%

NS(=O)(=O)OCC1CC(n2ccc3c(NC4CCc5ccccc54)ncnc32)CC1O (centres undefined)
viability, T/C (compound 0.0316 µM): 105% (2×) and 111% | viability, T/C (compound 0.1 µM): 91.6% and 81.1% and 96.8% | viability, T/C (compound 0.316 µM): 96.3% and 80.9% and 75.9% | viability, T/C (compound 1 µM): 61.7% and 50.2% and 53.7% | viability, T/C (compound 3.16 µM): 41% and 40.2% and 31.6% | viability, T/C (compound 10 µM): 36.6% and 31.7% and 31.8% | IC50 (curve of compound): 1850 nM and 1520 nM and 1090 nM

CCN(c1cc(-c2ccc(CN3CCOCC3)cc2)cc(C(=O)NCc2c(C)cc(C)[nH]c2=O)c1C)C1CCOCC1
viability, T/C (compound 0.00949 µM): 103% and 101% and 104% | viability, T/C (compound 0.03 µM): 105% and 99% and 108% | viability, T/C (compound 0.0949 µM): 109% and 101% and 95.7% | viability, T/C (compound 0.3 µM): 91.3% and 103% and 98.4% | viability, T/C (compound 0.949 µM): 100% and 97.4% and 94.9% | viability, T/C (compound 3 µM): 95.2% and 97.7% and 99.6% | IC50 (curve of compound): > 3000 nM

CC[C@@]1(O)C(=O)OCc2c1cc1n(c2=O)Cc2cc3c(CN(C)C)c(O)ccc3nc2-1 + CC(CO)NC(=O)c1cc(-c2ccc(Cl)cc2)nn(-c2cnn(C)c2)c1=O
IC50 [1]: > 100 nM | IC50 [2]: > 100 nM | IC50 [3]: > 100 nM | IC50 [4]: > 100 nM | IC50 [5]: > 100 nM | viability, T/C [6]: 120% | viability, T/C [7]: 115% | viability, T/C [8]: 114% | viability, T/C [9]: 103% | viability, T/C [10]: 83.9% | viability, T/C [11]: 82% | viability, T/C [12]: 112% | viability, T/C [13]: 110% | viability, T/C [14]: 115% | viability, T/C [15]: 98.9% | viability, T/C [16]: 89.6% | viability, T/C [17]: 84% | viability, T/C [18]: 126% | viability, T/C [19]: 123% | viability, T/C [20]: 120% | viability, T/C [21]: 109% | viability, T/C [22]: 91.4% | viability, T/C [23]: 103% | viability, T/C [24]: 115% | viability, T/C [25]: 118% | viability, T/C [26]: 132% | viability, T/C [27]: 93.8% | viability, T/C [28]: 82.9% | viability, T/C [29]: 86.8% | viability, T/C [30]: 110% | viability, T/C [31]: 117% | viability, T/C [32]: 110% | viability, T/C [33]: 103% | viability, T/C [34]: 84.5% | viability, T/C [35]: 83.7%
